Laboratory results taken from US20140230091A1, “MODIFIED PLANTS WITH INCREASED OIL CONTENT” (BROOKHAVEN SCIENCE ASSOCIATES, LLC, priority 2011, published 2014).

Tests used:
[1] = tested on: fatty acid synthesis in B. napus cells; test: 14C-acetate / 14C-malonate labeling of lipids (feedback inhibition of fatty acid synthesis); format: cell-based, Brassica napus; conditions: for Relative 14C-acetate incorporation (% control): relative to a control sample without any Tweens, mean of three repeats ± SD
Experimental: All radioisotopes were obtained from American Radiolabeled Chemicals (St. Louis, Mo. USA). Labeling was conducted on cells 5 days after subculturing with a culture density of ˜20 mg FW mL^−1 and that had medium refreshed 16 h prior. For labeling, three 1 mL aliquots of cells were carefully removed from each flask and were labeled with either 0.2 μCi of 1,2-^14C-acetate (50-60 mCi mmol^−1) or 2-^14C-malonate (40-60 mCi mmol^−1) for 15 minutes at 25° C. with occasional shaking. Haloxyfop (Sigma) was dissolved in DMSO and added 30 min prior to labeling. Lipids were extracted and separated by TLC as described above. Radioactivity was detected by phosphorimaging and was quantified using ImageQuant software (GE Healthcare, Piscataway, N.J., USA). Incorporation of label into individual fatty acids was determined by making FAMEs as described above, separating the methyl esters by TLC as described in (Koo, Fulda, Browse and Ohlrogge 2005, Plant J, 44, 620-632) and measuring radioactivity by phosphorimaging.
Feedback inhibition of fatty acid synthesis was measured by the addition of a ^14C-acetate tracer. […] Sterol synthesis is dependent on acetyl-CoA and ATP, both of which are required for fatty acid synthesis. Therefore, if fatty acid synthesis is inhibited due to substrate limitation; so should be sterol biosynthesis. ^14C-acetate incorporation into sterols was unaffected by Tween-80 feeding, while incorporation into free fatty acids mirrored that of total lipids (FIG. 5), showing that the effect is restricted to fatty acid synthesis. […] Three hour time points were used for the remainder of this study to separate the period of maximum feedback inhibition from any lipid homeostatic mechanisms arising from the gross fatty acid compositional changes caused by long term Tween-80 feeding.
Plants contain plastidic and cytosolic ACCase and F AS enzyme systems, both of which are capable of incorporating ^14C-acetate into fatty acids. Comparing the distribution of label in individual fatty acid species can therefore provide information on the relative contribution of these pathways. […] The degree to which ^14C-acetate incorporation is inhibited by haloxyfop is proportional to cytosolic elongation activity, whereas haloxyfop-resistant incorporation is from the de nova pathway inside the plastid.
To separate these possibilities, we exploited the fact that exogenous malonate can be converted to malonyl-CoA and used by FAS, bypassing the ACCase reaction (Kannangara et al. 1973, Plant Physiol, 52, 156-161). If ACCase is the only point of inhibition then the rate of ^14C-malonate labeling of de novo fatty acids should be the same in cultures with or without Tween-80. […] Therefore ACCase, and not F AS, is inhibited by Tween-80 feeding. When combined, the data from FIG. 6 unambiguously identify plastidic ACCase as the target of Tween-80 induced feedback inhibition.

ACCase = ACCase enzyme assay on crude cell extracts; format: biochemical, Brassica napus
Experimental: All chemicals were obtained from Sigma and radioisotopes from American Radiolabeled Chemicals. ACCase activity was measured as the acetyl-CoA dependent incorporation of ^14C—NaHC03 into acid and stable products. Crude cell extracts were prepared by grinding fresh cells in 3 volumes (w/v) of 50 mM Tris-Cl, pH 7.5, 100 mM KCl, 5 mM MgCl2, 1 mM DTT, 0.1% TritonX-100, 10% glycerol, and plant protease inhibitor cocktail (Sigma). Homogenate was gently mixed on ice for 10 min and then centrifuged for 5 min at 3000 g. Desalting of extracts was done with PD-10 columns (GE Life Sciences). […] Reactions were initiated by the addition of 5 μlL cell extract and were stopped by the addition of 15 μL 12 N HCL. The contents were dried completely at 55° C. and the solids were resuspended in 30 μL water and counted by liquid scintillation spectroscopy. Minus acetyl-CoA controls were always included. Assays went for 30 min, except when measuring the effects of metabolites (10 min). Metabolites were added to the reaction immediately after cell extract to preserve labile thioester bonds. FFA stock solutions were made in ethanol and acyl-CoAs were suspended in water.

[2] = target: Brassica napus plastidic (heteromeric) acetyl-CoA carboxylase, endogenous enzyme in crude cell extracts (Brassica napus); test: cell-based or functional assay
B. napus cells [3] = test: Quantification of fatty acid uptake from 13C-oleoyl-Tween by B. napus cells; format: cell-based, Brassica napus; conditions: 10 mM 13C-oleoyl-Tween
Experimental: Lipids were extracted from up to 100 mg fresh weight of frozen cells by homogenizing twice in 500 μL of methanol:chloroform:formic acid (20:10:1 v/v) using glass beads. The combined organic solvent was extracted with 500 μL of 1 M KCl, 0.2 M H3PO4 and the organic phase was recovered, dried under N2, and resuspended in hexane. Lipid classes were separated by TLC using silica gel G TLC Uniplates (Analtech, Newark, Del., USA) with hexane:diethylether:acetic acid (80:20:1, v/v) for neutral lipids or with acetone:toluene:water (91:30:7 v/v) with 0.15 M ammonium sulfate impregnated plates for polar lipids. Loading was equivalent to 10 or 20 mg fresh weight. Lipids were visualized with iodine vapor.
Fatty acid quantification was done by analysis of fatty acid methyl esters (FAMEs). […] FAMEs resuspended in hexane were analyzed with an HP6890 gas chromatograph-flame ionization detector (Agilent Technologies) or an HP5890 gas chromatograph-mass spectrometer (Hewlett-Packard) fitted with 60 m×250 μm SP-2340 capillary columns (Supelco). […]
1-^13C-oleic acid was obtained from Cambridge Isotope Laboratories (Andover, Mass., USA). […] Lipid extraction and GC/MS was done as described above. ^13C-fatty acids were detected and quantified and corrected for natural isotope abundance as previously described (Schwender et al. 2003, J Biol Chem, 278, 29442-29453). […]

B. napus cells [4] = test: Quantification of free fatty acid, acyl-ACP and acyl-CoA pools in cells; format: cell-based, Brassica napus; conditions: cells fed 13C-oleoyl-Tween, at 3 hours
Experimental: Free fatty acids were extracted from tissue by quenching ˜300 mg of frozen cells in 2 mL boiling isopropanol for 5 min. Once cooled, 2 mL of 0.9% NaCl was added and lipids were extracted twice with 4 mL of hexane. Neutral lipids were separated by TLC and free fatty acids were scraped, made into FAMEs, and analyzed by GC-FID or GC-MS as described above. Acyl-CoAs were extracted from ˜15 mg FW of cells and quantified as previously described (Larson and Graham 2001, Plant J, 25, 115-125). Acyl-ACPs were extracted and quantified as previously described (Kopka, Ohlrogge and Jaworski 1995, Anal Biochem, 224, 51-60) with the following modifications: 1) Internal standards used were 11:0-CoA (Sigma) and 17:0—ACP made from Spinach ACP as previously described (Broadwater and Fox 1999, Protein Expr Purif, 15, 314-326). 2) Fully dissolving TCA precipitated proteins required three extractions with MOPS buffer rather than just one.
1986 Plant Physiol, 82, 771-779). Free fatty acids can be activated by esterification to CoA or ACP before being deposited in cellular lipids. Steady state pools acyl-ACP and acyl-CoA as well as free fatty acids (FFA) were measured in cells fed Tween-80. After three hours of feeding, 18:1 FFA appeared where there was none detected in untreated cells (FIG. 9a). […] In a separate experiment designed to distinguish the incorporation of fatty acids from Tween from secondary effects of feedback inhibition, FFA and acylACPs were analyzed in cells fed ^13C-oleoyl-Tween. […] First, the in vivo concentrations of these intermediates were calculated based on the range of values in FIG. 9 and the water content of the cells. […] However, considering that acyl-ACPs are restricted to the plastid, the volume of which in developing embryos was determined to be 10% of the cell (Mansfield and Briarty 1992, Can J Bot, 70, 151-164), the estimate increased to 5-10 μM. […] Thioesterase activity was measured using the same conditions as the ACCase assay. […]

## Tween-85
[1]
  Relative 14C-acetate incorporation (% control): 48.8 ± 5.9 % control

## O=C(O)CCC(=O)C(=O)O [2-oxoglutarate]
ACCase; in the presence of 5 mM 2-oxoglutarate
  ACCase activity, difference between control and Tween-80 fed cultures: no differences

## B. napus 18:1-ACP (18:1-Acyl Carrier Protein made from BnACP, GenBank:X13127.1, with 6x his-tag)
[2]
  ACCase activity in crude B. napus cell extracts (acetyl-CoA dependent incorporation of 14C-NaHCO3, 10 min assay): > 3 µM

## Tween-40
[1]
  Relative 14C-acetate incorporation (% control): 84.4 ± 3.4 % control

## O=C(O)CC(=O)O [malonate]
[1]; malonate feeding
  inhibition of 14C-acetate incorporation on malonate feeding: does not cause inhibition

## Tween-18:1
[1]; in words
  inhibition of acetate labeling of lipids: maximum inhibition
[1]
  Relative 14C-acetate incorporation (% control): 51.5 ± 6.7 % control

## CCCCCCCC/C=C\CCCCCCCC(=O)SCCNC(=O)CCNC(=O)[C@H](O)C(C)(C)COP(=O)(O)OP(=O)(O)OC[C@H]1O[C@@H](n2cnc3c(N)ncnc32)[C@H](O)[C@@H]1OP(=O)(O)O [18:1-CoA, 18:1-Coenzyme A]
ACCase; crude extract, physiological range of concentrations
  extent of ACCase inhibition: partial

## 1-^13C-oleoyl-Tween
B. napus cells [3]; after three hours
  13C-18:1 as proportion of the total 18:1: about 10%
B. napus cells [3]; by 48 hours
  proportion of 13C-label in 18-carbon fatty acids: about 70%
B. napus cells [4]
  percent of 18:1-ACP containing 13C-oleic acid: 46.2±4.2%
  percent of 18:1 FFA containing 13C-oleic acid: 99.1±2.2%

## CC(Oc1ccc(Oc2ncc(C(F)(F)F)cc2Cl)cc1)C(=O)O (centres unmarked) [haloxyfop]
ACCase; crude extracts treated with haloxyfop
  reduction in ACCase activity: about 15%

## Tween-60
[1]
  Relative 14C-acetate incorporation (% control): 85.9 ± 3.4 % control
